Where two headings read alike, the source gives them in different places.
How the values were obtained:
[1] = system: acutely dissociated and purified rat OPCs; experiment: Acute OL differentiation assay (MBP expression/cell, immunofluorescent image quantification); assay type: cell-based
Procedure, shortened: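 Oligodendrocyte precursor cells were enriched from P6-P7 Sprague–Dawley rat brains by immunopanning (RAN-2 and GalC depletion, O4 selection), plated at 5000 cells/well in serum-free, mitogen-free differentiation media on PDL/laminin 96-well view plates, centrifuged at 200×g, and pre-incubated 1–2 h before test compounds were added in quadruplicate. On DIV4, cells were fixed, stained for MBP and DAPI, imaged automatically, and MBP expression per cell was quantified.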

expanded OPCs = experiment: cells; conditions: for viability at 0.1 µM / viability at 1 µM / viability at 10 µM: Rattus norvegicus, 72 h
Procedure, shortened: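 Expanded OPCs seeded at 10,000 cells/well in differentiation media, then exposed to NCC library compounds at 10, 1 and 0.1 µM (quadruplicate, 0.1% DMSO) for three days. Viability read as alamarBlue fluorescence (560/590 nm) after 4 h at 37 °C; tunicamycin 5 ng/ml served as toxicity control.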

[2] = Rattus norvegicus, test compound at 2 uM, MBP expression relative to quetiapine, NCC library screen, sheet "All OLga data", read-out: 2 uM (% Quet)
[3] = Rattus norvegicus, test compound at 10 uM, MBP expression relative to quetiapine, NCC library screen, sheet "All OLga data", read-out: 10 uM (% Quet)
[4] = alamarBlue viability of expanded OPCs, compound at 0.1 µM, relative to DMSO control
[5] = alamarBlue viability of expanded OPCs, compound at 1 µM, relative to DMSO control
[6] = alamarBlue viability of expanded OPCs, compound at 10 µM, relative to DMSO control
[7] = Rattus norvegicus, 2 uM test compound, relative to quetiapine, sheet "All OLga data", read-out: OL differentiation, 2 uM (% Quet)
[8] = Rattus norvegicus, 10 uM test compound, relative to quetiapine, sheet "All OLga data", read-out: OL differentiation, 10 uM (% Quet)
[9] = read-out: 0.1 µM (% DMSO), alamarBlue viability of expanded OPCs, compound at 0.1 µM, sheet All Tox data
[10] = read-out: 1 µM (% DMSO), alamarBlue viability of expanded OPCs, compound at 1 µM, sheet All Tox data
[11] = read-out: 10 µM (% DMSO), alamarBlue viability of expanded OPCs, compound at 10 µM, sheet All Tox data
[12] = Rattus norvegicus, test compound at 2 uM, NCC library screen, sheet "All OLga data", relative to quetiapine, read-out: 2 uM (% Quet)
[13] = Rattus norvegicus, test compound at 10 uM, NCC library screen, sheet "All OLga data", relative to quetiapine, read-out: 10 uM (% Quet)
[14] = read-out: 0.1 µM (% DMSO), alamarBlue viability, NCC library compound at 0.1 µM, sheet "All Tox data"
[15] = read-out: 1 µM (% DMSO), alamarBlue viability, NCC library compound at 1 µM, sheet "All Tox data"
[16] = read-out: 10 µM (% DMSO), alamarBlue viability, NCC library compound at 10 µM, sheet "All Tox data"
[17] = test compound at 2 uM, NCC library screen, sheet "All OLga data", relative to quetiapine
[18] = test compound at 10 uM, NCC library screen, sheet "All OLga data", relative to quetiapine
[19] = alamarBlue viability, NCC library compound at 0.1 µM, sheet "All Tox data"
[20] = alamarBlue viability, NCC library compound at 1 µM, sheet "All Tox data"
[21] = alamarBlue viability, NCC library compound at 10 µM, sheet "All Tox data"

Molecule	activation at 2 µM [1, 7]	activation at 10 µM [1, 8]	viability at 0.1 µM (expanded OPCs; [9])	viability at 1 µM (expanded OPCs; [10])	viability at 10 µM (expanded OPCs; [11])	viability at 0.1 µM (expanded OPCs; [14])	viability at 1 µM (expanded OPCs; [15])	viability at 10 µM (expanded OPCs; [16])	also measured
Cc1cn([C@H]2C[C@H](N=[N+]=[N-])[C@@H](CO)O2)c(=O)[nH]c1=O [Zidovudine]	–	–	–	–	–	–	–	–	activation at 2 µM [1, 2]: -29.4%; activation at 10 µM [1, 3]: -41.2%; 0.1 µM (% DMSO) (expanded OPCs; [4]): 89.6 % DMSO; 1 µM (% DMSO) (expanded OPCs; [5]): 85.7 % DMSO; 10 µM (% DMSO) (expanded OPCs; [6]): 83.9 % DMSO
CC(c1cc2ccccc2s1)N(O)C(N)=O (stereo not drawn) [Zileuton]	-2.6%	-52.1%	104%	89.4%	77.4%	–	–	–	–
CN(C)CCc1c[nH]c2ccc(C[C@H]3COC(=O)N3)cc12 [Zolmitriptan]	–	–	–	–	–	85.9%	89.9%	95.5%	activation at 2 µM [1, 12]: 4.1%; activation at 10 µM [1, 13]: 4.7%
Cc1ccc(-c2nc3ccc(C)cn3c2CC(=O)N(C)C)cc1 [Zolpidem]	-14%	-2.7%	86.9%	90.8%	93.5%	–	–	–	–
NS(=O)(=O)Cc1noc2ccccc12 [Zonisamide]	–	–	–	–	–	–	–	–	activation at 2 µM [1, 2]: 5.9%; activation at 10 µM [1, 3]: 4.3%; 0.1 µM (% DMSO) (expanded OPCs; [4]): 89.3 % DMSO; 1 µM (% DMSO) (expanded OPCs; [5]): 92.8 % DMSO; 10 µM (% DMSO) (expanded OPCs; [6]): 87.8 % DMSO
COc1cc(CNC(=O)CCCC/C=C\C(C)C)ccc1O [Zucapsaicin]	-17%	–	85.6%	72%	36.9%	–	–	–	activation at 0.4 µM ([1]; Rattus norvegicus, 0.4 uM test compound, relative to quetiapine, sheet "All OLga data", read-out: OL differentiation, 0.4 uM (% Quet)): 13.2%
N#Cc1ccc(C(c2ccc(C#N)cc2)n2cncn2)cc1 [letrozole]	1.2%	-4.8%	92%	99.2%	101%	–	–	–	–
CC(=O)NC[C@H]1CN(c2ccc(N3CCOCC3)c(F)c2)C(=O)O1 [linezolid]	4.3%	7.1%	–	–	–	95.7%	94.1%	94.7%	–
CC(Oc1c(Cl)cccc1Cl)C1=NCCN1 (stereo not drawn) [lofexidine]	–	–	–	–	–	88.5%	96%	80.6%	activation at 2 µM [1, 12]: 9.5%; activation at 10 µM [1, 13]: 13.1%
CC(C(=O)O)c1ccc(CC2CCCC2=O)cc1 (stereo not drawn) [loxoprofen]	3.1%	10.9%	–	–	–	99.8%	92.5%	87.6%	–
NC(Cc1cc(I)c(Oc2cc(I)c(O)c(I)c2)c(I)c1)C(=O)O (stereo not drawn) [thyroxine, reference compound]	–	–	–	–	–	–	–	–	promotion of OL differentiation (in words) ([1]; MBP expression versus 0.1 % DMSO negative control): able to promote OL differentiation at one or both concentrations tested; activation at 2 µM [1, 12]: -26.7%; activation at 10 µM [1, 13]: -186%; 0.1 µM (% DMSO) (expanded OPCs; [4]): 212.0 % DMSO; 1 µM (% DMSO) (expanded OPCs; [5]): 190.0 % DMSO; 10 µM (% DMSO) (expanded OPCs; [6]): 120.0 % DMSO
HTMT	–	–	–	–	–	–	–	–	2 uM (% Quet) [1, 17]: -16.4 % Quet; 10 uM (% Quet) [1, 18]: 21.8 % Quet; 0.1 µM (% DMSO) (expanded OPCs; [19]): 71.6 % DMSO; 1 µM (% DMSO) (expanded OPCs; [20]): 71.0 % DMSO; 10 µM (% DMSO) (expanded OPCs; [21]): 63.6 % DMSO
Methanesulfonamide	–	–	–	–	–	–	–	–	2 uM (% Quet) [1, 17]: -6.5 % Quet; 10 uM (% Quet) [1, 18]: 5.8 % Quet; 0.1 µM (% DMSO) (expanded OPCs; [19]): 118.1 % DMSO; 1 µM (% DMSO) (expanded OPCs; [20]): 132.7 % DMSO; 10 µM (% DMSO) (expanded OPCs; [21]): 132.9 % DMSO

Reference: paper PMC5011342, “A high throughput drug screening assay to identify compounds that promote oligodendrocyte differentiation using acutely dissociated and purified oligodendrocyte precursor cells” (BMC Research Notes, 2016)
